# PubChem BioAssay (NCI)
#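 Grown in 96-well plates, cells were treated for 48 hours with each compound at five concentrations. Insufficient inhibition: endpoint recorded as highest concentration tested. GI50 = concentration required for 50% inhibition of growth. Definition used: TGI = concentration required for complete inhibition of growth.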
# Tests used:
# Assay in all cases: NCI tumour cell line growth inhibition, 48 h
# COLO 205 colon = tested on: COLO 205 colon
# HS 578T breast = tested on: HS 578T breast
# K-562 leukemia = tested on: K-562 leukemia
# CCRF-CEM leukemia = tested on: CCRF-CEM leukemia
# SNB-75 CNS = tested on: SNB-75 CNS
# OVCAR-4 ovarian = tested on: OVCAR-4 ovarian
# HL-60(TB) leukemia = tested on: HL-60(TB) leukemia
# RPMI-8226 leukemia = tested on: RPMI-8226 leukemia
# MCF7 breast = tested on: MCF7 breast
# A498 renal = tested on: A498 renal
# SK-OV-3 ovarian = tested on: SK-OV-3 ovarian
# SK-MEL-2 melanoma = tested on: SK-MEL-2 melanoma
# HT29 colon = tested on: HT29 colon
# OVCAR-8 ovarian = tested on: OVCAR-8 ovarian
# RXF 393 renal = tested on: RXF 393 renal
# A549 NSCLC = tested on: A549 NSCLC
# SR leukemia = tested on: SR leukemia
# MDA-MB-435 = tested on: MDA-MB-435
# BT-549 breast = tested on: BT-549 breast
# UO-31 renal = tested on: UO-31 renal
# CAKI-1 renal = tested on: CAKI-1 renal
# UACC-62 melanoma = tested on: UACC-62 melanoma
# MOLT-4 leukemia = tested on: MOLT-4 leukemia
# MDA-MB-231 breast = tested on: MDA-MB-231 breast
# SK-MEL-28 melanoma = tested on: SK-MEL-28 melanoma
# HOP-62 NSCLC = tested on: HOP-62 NSCLC
# SF-295 CNS = tested on: SF-295 CNS
# NCI/ADR-RES ovarian = tested on: NCI/ADR-RES ovarian
# IGROV1 ovarian = tested on: IGROV1 ovarian
# TK-10 renal = tested on: TK-10 renal
# SK-MEL-5 melanoma = tested on: SK-MEL-5 melanoma
# SN12C renal = tested on: SN12C renal
# SF-268 CNS = tested on: SF-268 CNS
# T-47D breast = tested on: T-47D breast
# NCI-H226 lung = tested on: NCI-H226 lung
# EKVX NSCLC = tested on: EKVX NSCLC
# U251 CNS = tested on: U251 CNS
# NCI-H23 lung = tested on: NCI-H23 lung
# UACC-257 melanoma = tested on: UACC-257 melanoma
# SW-620 colon = tested on: SW-620 colon
# HCT-15 colon = tested on: HCT-15 colon
# HOP-92 NSCLC = tested on: HOP-92 NSCLC
# 786-0 renal = tested on: 786-0 renal
# OVCAR-3 ovarian = tested on: OVCAR-3 ovarian
# OVCAR-5 ovarian = tested on: OVCAR-5 ovarian
# KM12 colon = tested on: KM12 colon
# M14 melanoma = tested on: M14 melanoma
# NCI-H460 lung = tested on: NCI-H460 lung
# LOX IMVI melanoma = tested on: LOX IMVI melanoma
# DU-145 prostate = tested on: DU-145 prostate
# SNB-19 CNS = tested on: SNB-19 CNS
# HCT-116 colon = tested on: HCT-116 colon
# NCI-H522 lung = tested on: NCI-H522 lung
# HCC-2998 colon = tested on: HCC-2998 colon
# PC-3 prostate = tested on: PC-3 prostate
# SF-539 CNS = tested on: SF-539 CNS
structure (smiles),measurement,setting,value
C[C@H](c1ccc(Cl)cc1[N+](=O)[O-])N1C(=O)c2cc(I)ccc2N=C(OCCCN2CCN(C)CC2)[C@@H]1c1ccc(Cl)cc1,GI50,COLO 205 colon,1.69 µM
same,TGI,COLO 205 colon,3.27 µM
same,GI50,HS 578T breast,2.02 µM
same,TGI,HS 578T breast,6.47 µM
same,GI50,K-562 leukemia,1.81 µM
same,TGI,K-562 leukemia,4.03 µM
same,GI50,CCRF-CEM leukemia,2.18 µM
same,TGI,CCRF-CEM leukemia,5.41 µM
same,GI50,SNB-75 CNS,1.71 µM
same,TGI,SNB-75 CNS,4.27 µM
same,GI50,OVCAR-4 ovarian,1.6 µM
same,TGI,OVCAR-4 ovarian,3.15 µM
same,GI50,HL-60(TB) leukemia,2.44 µM
same,TGI,HL-60(TB) leukemia,4.41 µM
same,GI50,RPMI-8226 leukemia,2.33 µM
same,TGI,RPMI-8226 leukemia,6.5 µM
same,GI50,MCF7 breast,1.64 µM
same,TGI,MCF7 breast,3.26 µM
same,GI50,A498 renal,2.08 µM
same,TGI,A498 renal,5.42 µM
same,GI50,SK-OV-3 ovarian,1.79 µM
same,TGI,SK-OV-3 ovarian,3.24 µM
same,GI50,SK-MEL-2 melanoma,2.11 µM
same,TGI,SK-MEL-2 melanoma,4.05 µM
same,GI50,HT29 colon,1.91 µM
same,TGI,HT29 colon,3.49 µM
same,GI50,OVCAR-8 ovarian,1.61 µM
same,TGI,OVCAR-8 ovarian,3.4 µM
same,GI50,RXF 393 renal,1.73 µM
same,TGI,RXF 393 renal,3.25 µM
same,GI50,A549 NSCLC,1.57 µM
same,TGI,A549 NSCLC,3.14 µM
same,GI50,SR leukemia,1.65 µM
same,TGI,SR leukemia,3.88 µM
CCc1cccc2c3c([nH]c12)-c1ccccc1NC(=O)C3,TGI,COLO 205 colon,> 100 µM
same,TGI,HS 578T breast,> 100 µM
same,TGI,K-562 leukemia,> 100 µM
same,TGI,MDA-MB-435,> 100 µM
same,TGI,CCRF-CEM leukemia,> 100 µM
same,TGI,BT-549 breast,> 100 µM
same,TGI,UO-31 renal,> 100 µM
same,TGI,SNB-75 CNS,> 100 µM
same,TGI,CAKI-1 renal,> 100 µM
same,TGI,UACC-62 melanoma,> 100 µM
same,TGI,MOLT-4 leukemia,> 100 µM
same,TGI,MDA-MB-231 breast,> 100 µM
same,TGI,SK-MEL-28 melanoma,> 100 µM
same,TGI,HOP-62 NSCLC,> 100 µM
same,TGI,SF-295 CNS,> 100 µM
same,TGI,NCI/ADR-RES ovarian,> 100 µM
same,TGI,IGROV1 ovarian,> 100 µM
same,TGI,TK-10 renal,> 100 µM
same,TGI,SK-MEL-5 melanoma,> 100 µM
same,TGI,SN12C renal,> 100 µM
same,TGI,HL-60(TB) leukemia,> 100 µM
same,TGI,RPMI-8226 leukemia,> 100 µM
same,TGI,SF-268 CNS,> 100 µM
same,TGI,T-47D breast,> 100 µM
same,TGI,MCF7 breast,> 100 µM
same,TGI,NCI-H226 lung,> 100 µM
same,TGI,EKVX NSCLC,> 100 µM
same,TGI,A498 renal,> 100 µM
same,TGI,U251 CNS,> 100 µM
same,TGI,NCI-H23 lung,> 100 µM
same,TGI,UACC-257 melanoma,> 100 µM
same,TGI,SW-620 colon,> 100 µM
same,TGI,SK-OV-3 ovarian,> 100 µM
same,TGI,HCT-15 colon,> 100 µM
same,TGI,HOP-92 NSCLC,> 100 µM
same,TGI,SK-MEL-2 melanoma,> 100 µM
same,TGI,HT29 colon,> 100 µM
same,TGI,786-0 renal,> 100 µM
same,TGI,OVCAR-8 ovarian,> 100 µM
same,TGI,OVCAR-3 ovarian,> 100 µM
same,TGI,OVCAR-5 ovarian,> 100 µM
same,TGI,KM12 colon,> 100 µM
same,TGI,M14 melanoma,> 100 µM
same,TGI,NCI-H460 lung,> 100 µM
same,TGI,A549 NSCLC,> 100 µM
same,TGI,LOX IMVI melanoma,> 100 µM
same,TGI,DU-145 prostate,> 100 µM
same,TGI,SNB-19 CNS,> 100 µM
Nc1nc(Cl)cc(OCC2(CO)CCC2)n1,GI50,SNB-75 CNS,68.4 µM
same,GI50,EKVX NSCLC,60.6 µM
same,GI50,HOP-92 NSCLC,51.3 µM
O=C(Oc1cccc(Cl)c1)c1ccccc1Nc1ccnc(C(F)(F)F)c1,GI50,HS 578T breast,20.8 µM
same,TGI,HS 578T breast,61 µM
same,GI50,K-562 leukemia,3.27 µM
same,TGI,K-562 leukemia,34.3 µM
same,GI50,HCT-116 colon,1.63 µM
same,TGI,HCT-116 colon,3.45 µM
same,GI50,MDA-MB-435,3.04 µM
same,TGI,MDA-MB-435,10.7 µM
same,GI50,CCRF-CEM leukemia,0.898 µM
same,TGI,CCRF-CEM leukemia,91.6 µM
same,GI50,BT-549 breast,6.77 µM
same,TGI,BT-549 breast,27.6 µM
same,GI50,UO-31 renal,23.5 µM
same,TGI,UO-31 renal,> 100 µM
same,GI50,CAKI-1 renal,2.13 µM
same,TGI,CAKI-1 renal,4.1 µM
same,GI50,UACC-62 melanoma,2.02 µM
same,TGI,UACC-62 melanoma,6.71 µM
same,GI50,MOLT-4 leukemia,0.938 µM
same,TGI,MOLT-4 leukemia,> 100 µM
same,GI50,MDA-MB-231 breast,1.69 µM
same,TGI,MDA-MB-231 breast,4.7 µM
same,GI50,HOP-62 NSCLC,24.9 µM
same,TGI,HOP-62 NSCLC,44.7 µM
same,GI50,SF-295 CNS,18.3 µM
same,TGI,SF-295 CNS,45.5 µM
same,GI50,NCI/ADR-RES ovarian,2.24 µM
same,TGI,NCI/ADR-RES ovarian,6.1 µM
same,GI50,IGROV1 ovarian,15.2 µM
same,TGI,IGROV1 ovarian,> 100 µM
same,GI50,TK-10 renal,85 µM
same,TGI,TK-10 renal,> 100 µM
same,GI50,SK-MEL-5 melanoma,2.59 µM
same,TGI,SK-MEL-5 melanoma,6.73 µM
same,GI50,NCI-H522 lung,4.21 µM
same,TGI,NCI-H522 lung,41.1 µM
same,GI50,SN12C renal,2.92 µM
same,TGI,SN12C renal,6.18 µM
same,GI50,HL-60(TB) leukemia,12.8 µM
same,TGI,HL-60(TB) leukemia,> 100 µM
same,GI50,RPMI-8226 leukemia,1.83 µM
same,TGI,RPMI-8226 leukemia,4.33 µM
same,GI50,SF-268 CNS,3.03 µM
same,TGI,SF-268 CNS,10.8 µM
same,GI50,HCC-2998 colon,3.46 µM
same,TGI,HCC-2998 colon,6.66 µM
same,GI50,MCF7 breast,4.78 µM
same,TGI,MCF7 breast,20 µM
same,GI50,NCI-H226 lung,2.15 µM
same,TGI,NCI-H226 lung,8.89 µM
same,GI50,EKVX NSCLC,22.2 µM
same,TGI,EKVX NSCLC,46.4 µM
same,GI50,NCI-H23 lung,2.41 µM
same,TGI,NCI-H23 lung,8.26 µM
same,GI50,SW-620 colon,4.33 µM
same,TGI,SW-620 colon,23.3 µM
same,GI50,HOP-92 NSCLC,8.74 µM
same,TGI,HOP-92 NSCLC,32.1 µM
same,GI50,SK-MEL-2 melanoma,15.7 µM
same,TGI,SK-MEL-2 melanoma,> 100 µM
same,GI50,786-0 renal,3.53 µM
same,TGI,786-0 renal,11.4 µM
same,GI50,OVCAR-8 ovarian,3.52 µM
same,TGI,OVCAR-8 ovarian,18.1 µM
same,GI50,OVCAR-3 ovarian,3.8 µM
same,TGI,OVCAR-3 ovarian,18.1 µM
same,GI50,OVCAR-5 ovarian,13.8 µM
same,TGI,OVCAR-5 ovarian,57 µM
same,GI50,KM12 colon,9.53 µM
same,TGI,KM12 colon,41.4 µM
same,GI50,M14 melanoma,1.77 µM
same,TGI,M14 melanoma,4.46 µM
same,GI50,NCI-H460 lung,11.2 µM
same,TGI,NCI-H460 lung,43.7 µM
same,GI50,A549 NSCLC,18.1 µM
same,TGI,A549 NSCLC,55.1 µM
same,GI50,SR leukemia,0.434 µM
same,TGI,SR leukemia,> 100 µM
same,GI50,DU-145 prostate,14.2 µM
same,TGI,DU-145 prostate,27.6 µM
same,GI50,PC-3 prostate,7.39 µM
same,TGI,PC-3 prostate,23.6 µM
same,GI50,SF-539 CNS,2.79 µM
same,TGI,SF-539 CNS,7.24 µM
